{"source": "patent US7875638B2", "about": "“Synthesis of epothilones, intermediates thereto, analogues and uses thereof” (Sloan-Kettering Institute for Cancer Research, priority 2002, dated 2011)", "key": {"RPMI8226": {"system": "RPMI8226", "test": "XTT cell growth inhibition, RPMI8226", "format": "cell-based", "settings": "Homo sapiens, RPMI-8226, read-out: IC50 (nM), RPMI8226"}, "H929": {"system": "H929", "test": "XTT cell growth inhibition, H929", "format": "cell-based", "settings": "Homo sapiens, NCI-H929, read-out: IC50 (nM), H929"}, "MOLP-5": {"system": "MOLP-5", "test": "XTT cell growth inhibition, MOLP-5", "format": "cell-based", "settings": "Homo sapiens, read-out: IC50 (nM), MOLP-5"}, "HCT-116": {"system": "HCT-116", "test": "XTT cell growth inhibition, HCT-116", "format": "cell-based", "settings": "Homo sapiens, HCT-116, read-out: IC50 (nM), HCT-116"}, "Ovcar-4": {"system": "Ovcar-4", "test": "XTT cell growth inhibition, Ovcar-4", "format": "cell-based", "settings": "Homo sapiens, OVCAR-4, read-out: IC50 (nM), Ovcar-4"}, "[1]": {"system": "RPMI-8226 (human multiple myeloma cell line)", "test": "Global gene expression (Affymetrix chip AU133 2.0)", "format": "cell-based"}, "CAG myeloma cell lines [2]": {"system": "CAG myeloma cell lines", "test": "Cell cycle analysis (propidium iodide DNA staining), CAG", "format": "cell-based, human", "settings": "31.25 nM", "excerpt": "CAG myeloma cell lines were used."}, "[3]": {"system": "RPMI8226 myeloma cell lines", "test": "Cell cycle analysis (propidium iodide DNA staining), RPMI8226", "format": "cell-based, human", "settings": "31.25 nM", "excerpt": "RPMI8226 myeloma cell lines were used."}, "OPM-2 myeloma cells": {"system": "OPM-2 myeloma cells", "test": "Cell cycle analysis (propidium iodide DNA staining), OPM-2", "format": "cell-based, human", "excerpt": "FIG. 95 is cell cycle analysis as determined by Propidium iodide DNA staining. […] The two drugs induced the same patter of cell cycle arrest."}, "Human CD34+ stem cells": {"system": "Human CD34+ stem cells", "test": "Apoptosis and 2 weeks progenitor assays on CD34+ stem cells", "format": "cell-based", "settings": "24 hours incubation, umbilical cord blood CD34+", "description": "Then drugs were washed out and annexin V staining was performed. Solid area represents vehicle control and open area represents drug treated group. There is no obvious increased apoptosis of non-cycling human CD34+ cells with short period of exposure to epothilones.\nDrug cytotoxicity to hematopoietic stem cells is always a major concern. Human CD34+ stem cells were isolated from umbilical cord blood and incubated with either dEpoB or Fludelone alone for 24 hours. After washing out the drugs, apoptosis assays and 2 weeks progenitor assays were performed to evaluate the influence of epothilone to stem cells."}, "primary CD138 MM cells": {"system": "primary CD138 MM cells", "test": "Apoptosis of primary myeloma cells", "format": "cell-based, human", "settings": "cells obtained from patient marrow"}, "[4]": {"system": "RPMI8226 myeloma cell line", "test": "Annexin V staining, RPMI8226", "format": "cell-based, human", "settings": "24 hours treatment", "excerpt": "(§1) In early apoptotic cells, the membrance phospholipids phosphatidylserine (PS) is translocated from the inner to the outer leaflet of the plasma membrane, thereby exposing PS to the external cellular environment. Annexin V is a 35-36 kD Ca^+2 dependent phospholipid-binding protein that has a high affinity for PS, and binds to cells with exposed PS. In conjunction with a vital dye such as 7-amino-actinomycin (7-AAD) staining dead cells, this assay allows the identification of early apoptotic cells."}, "CAG myeloma cell lines [5]": {"system": "CAG myeloma cell lines", "test": "Annexin V staining, CAG", "format": "cell-based, human", "settings": "24 hours treatment", "excerpt": "as §1, with “membrane” for “membrance”, “Ca^2+” for “Ca^+2”, “phospholipids-binding” for “phospholipid-binding”, “to identify” for “the identification of”, “cells. […] Note that X-axis is Annexin staining and Y-axis is 7-AAD staining.” for “cells.”"}, "[6]": {"system": "human xenografts in nude mice, such as MX-1", "settings": "mouse, in vivo"}, "in vitro": {"test": "in vitro", "settings": "human, s9", "method": "Stability of epothilones in mouse and in human liver S9 fraction. The stability study was carried out with a fully automated HPLC system which consisted of a Prospekt-2 (Spark Holland, Netherlands) sample preparation system and an Agilent 1100 HPLC system. Briefly, the Prospekt 2 picked up a C8 extraction cartridge and washed it with acetonitrile and water. The Agilent autosampler, set at 37° C., picked up 20 μl of the sample, loaded it onto the cartridge, washed it with water, then the Prospekt-2 diverted the mobile phase stream through the extraction cartridge onto the analytical column, Reliance Stable Bond C8 4×80 mm with guard column (MacMod, Chadds Ford, Pa.) and the eluent was monitored at 250 nm. […] Sample preparation involved the addition of equal volumes of plasma to PBS for a total volume of 300-400 μl, filtered, and the addition of 0.5-2 μl of the substrate (20 mM) to achieve about 30-50 mAU at 250 nm in the HPLC analysis. For pooled human liver microsome S9 fraction (Xeno Tech, Lenex, Kans.), 20 μl (400 μg) or S9 fraction was mixed with 280 μl of PBS then proceeded as above. The sampling period was controlled by the autosampler and peak area data were collected to compare the rate of disappearance of the parent compound.\nStability of epothilones in mouse and in human liver S9 fraction: The stability study was carried out with a fully automated HPLC system which consisted of a Prospekt-2 (Spark Holland, Netherlands) sample preparation system and an Agilent 1100 HPLC system. Briefly, the Prospekt 2 picked up a C8 extraction cartridge and washed it with acetonitrile and water. The Agilent autosampler, set at 37° C., picked up 20 μl of the sample, loaded it onto the cartridge, washed it with water, then the Prospekt-2 diverted the mobile phase stream through the extraction cartridge onto the analytical column, Reliance Stable Bond C8 4×80 mm with guard column (MacMod, Chadds Ford, Pa.) and the eluent was monitored at 250 nm. […] Sample preparation involves the addition of equal volumes of plasma to PBS for a total volume of 400 μl, filtered, and the addition of 0.5-2 μl of the substrate (20 mM) to achieve about 30-50 mAU at 250 nm in the HPLC analysis. For pooled human liver microsome S9 fraction (Xeno Tech, Lenex, Kans.), 20 μl (400 μg) or S9 fraction was mixed with 280 μl of PBS then proceeds as above. The sampling period was controlled by the autosampler and peak area data were collected to compare the rate of disappearance of the parent compound."}, "[7]": {"system": "human mammary carcinoma MX-1 xenograft", "test": "MX-1 xenograft in nude mice", "settings": "mouse, in vivo"}, "CAG myeloma cells": {"system": "CAG myeloma cells", "test": "Disseminated CAG xenograft myeloma mice", "settings": "20 mg/kg", "method": "10×10^6 CAG myeloma cells engineered with Luc-eGFP-TK fusion gene were injected intravenously into the mouse-tail vein, and the treatment was started when decent myeloma cells implantation was detected by bioluminescence imaging on day 7."}}, "note": "Where two headings read alike, the source gives them in different places."}
{"compound": "C/C1=C/CC(/C(C)=C/c2csc(C)n2)OC(=O)C[C@H](O)C(C)(C)C(=O)[C@H](C)[C@@H](O)[C@@H](C)CCC1", "note": "(stereo partly shown) [Compound 1, 12,13-desoxyepothilone B, reference compound]", "values": [{"measurement": "IC50", "setting": "RPMI8226", "value": "36.7 ± 2", "unit": "nM"}, {"measurement": "IC50", "setting": "H929", "value": "42.8 ± 4.5", "unit": "nM"}, {"measurement": "IC50", "setting": "MOLP-5", "value": "68.6 ± 5.5", "unit": "nM"}, {"measurement": "IC50", "setting": "HCT-116", "value": "7.5 ± 3.1", "unit": "nM"}, {"measurement": "IC50", "setting": "Ovcar-4", "value": "16 ± 2.5", "unit": "nM"}, {"measurement": "Increase in expression, OAS2", "setting": "[1]; 6 hrs or 18 hrs of dEpoB treatment", "value": "+2"}, {"measurement": "Increase in expression, MX1", "setting": "[1]; 18 hrs of dEpoB treatment", "value": "+2.3"}, {"measurement": "Cell cycle arrest", "setting": "CAG myeloma cell lines [2]", "value": "absolutely blocked cell cycle at G2M phase"}, {"measurement": "Cell cycle arrest", "setting": "[3]", "value": "absolutely blocked cell cycle at G2M phase"}, {"measurement": "Cell cycle arrest", "setting": "OPM-2 myeloma cells", "value": "arrested in G2M phase starting from 6 hours and absolutely blocked at 24 hours"}, {"measurement": "Toxicity on non-cycling stem cells", "setting": "Human CD34+ stem cells", "value": "no significant toxicity"}, {"measurement": "Tumor apoptosis within 24 hrs", "setting": "primary CD138 MM cells", "value": "not"}, {"measurement": "Apoptosis (Annexin V / 7-AAD)", "setting": "[4]", "value": "majority of cell either enter apoptosis or are dead"}, {"measurement": "Apoptosis (Annexin V / 7-AAD)", "setting": "CAG myeloma cell lines [5]", "value": "majority of cells either enter apoptosis or are dead"}, {"measurement": "IC50", "setting": "CCRF-CEM; human", "value": "0.0056 ± 0.0028", "unit": "µM"}, {"measurement": "IC50", "setting": "CCRF-CEM; read-out: IC50 (μM), CCRF-CEM, XTT assay following 72 h inhibition, Table 1-2", "value": 0.0036, "unit": "µM"}, {"measurement": "IC50", "setting": "CCRF-CEM; read-out: IC50, CCRF-CEM(C), XTT assay following 72 h inhibition, Table 1-3", "value": 0.0036, "unit": "µM"}, {"measurement": "IC50", "setting": "CCRF-CEM; read-out: IC50, CCRF-CEM, XTT assay following 72 h inhibition, Table 1-4", "value": 0.0036, "unit": "µM"}, {"measurement": "Dose accomplishing complete suppression of tumor in a variety of xenografts", "setting": "[6]", "value": 30, "unit": "mg/kg"}, {"measurement": "Maximal b.w. % drop without death", "setting": "[6]", "value": 32, "unit": "%"}, {"measurement": "half-life", "setting": "in vitro", "value": "60 ± 6", "unit": "min"}, {"measurement": "Changes of body weight (%) on day 4 after stopping administration", "setting": "[7]", "value": "−25.3 ± 2.1", "unit": "%"}, {"measurement": "Changes of body weight (%) on day 8 after stopping administration", "setting": "[7]", "value": "−9.1 ± 4.1", "unit": "%"}, {"measurement": "Survival after transplanting CAG cells (Kaplan-Meier)", "setting": "CAG myeloma cells", "value": "≤ 50", "unit": "days"}, {"measurement": "Survival versus controls", "setting": "CAG myeloma cells; intraperitoneal", "value": "no difference in survival"}]}
